From US11304946B2, “2-hetarylpyrimidine-4-carboxamides as aryl hydrocarbon receptor antagonists” (Bayer Aktiengesellschaft, priority 2017, dated 2022)

Key:
[1] = target: T1, Human AhR (Homo sapiens, UniProt P35869); test: Transactivation assay in human cell line (in vitro assay 1: antagonism); format: cell-based; settings: U87 glioblastoma cells, AHR inducible (DRE) firefly luciferase reporter, 150 μM kynurenic acid, 20 hours
T1 construct: host or cells: U87 glioblastoma cells, stably transfected with DRE-driven firefly luciferase and constitutive renilla reporter constructs
T1 sequence (P35869 11-848): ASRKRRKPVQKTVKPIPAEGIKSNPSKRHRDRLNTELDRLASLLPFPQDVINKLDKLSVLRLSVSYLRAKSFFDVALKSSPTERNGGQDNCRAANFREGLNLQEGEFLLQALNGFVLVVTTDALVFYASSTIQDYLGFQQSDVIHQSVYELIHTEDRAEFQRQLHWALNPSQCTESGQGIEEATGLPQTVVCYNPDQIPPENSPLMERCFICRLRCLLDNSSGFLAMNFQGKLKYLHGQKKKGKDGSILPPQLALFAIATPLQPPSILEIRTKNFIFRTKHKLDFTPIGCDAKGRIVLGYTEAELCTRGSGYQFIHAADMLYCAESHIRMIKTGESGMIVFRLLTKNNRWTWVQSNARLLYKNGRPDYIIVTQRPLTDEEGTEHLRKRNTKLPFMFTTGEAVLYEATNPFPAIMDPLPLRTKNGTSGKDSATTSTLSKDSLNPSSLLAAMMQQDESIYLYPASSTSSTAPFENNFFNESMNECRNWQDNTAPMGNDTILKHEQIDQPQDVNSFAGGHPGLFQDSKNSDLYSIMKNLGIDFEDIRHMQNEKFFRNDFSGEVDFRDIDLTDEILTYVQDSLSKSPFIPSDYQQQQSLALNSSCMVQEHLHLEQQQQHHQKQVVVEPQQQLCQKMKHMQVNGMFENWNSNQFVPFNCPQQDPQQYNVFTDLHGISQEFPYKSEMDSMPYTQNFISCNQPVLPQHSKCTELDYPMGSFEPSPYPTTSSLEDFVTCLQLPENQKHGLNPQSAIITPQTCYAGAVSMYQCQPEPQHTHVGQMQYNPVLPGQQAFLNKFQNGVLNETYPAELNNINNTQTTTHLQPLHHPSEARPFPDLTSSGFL
Outline: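 U87 glioblastoma cells with endogenous AHR, stably carrying DRE-driven firefly luciferase and constitutive Renilla reporters, prestimulated with kynurenic acid before compound. Dual luciferase read-out; Renilla signal used to flag toxicity.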

[2] = target: T2, Mouse AhR (Mus musculus, UniProt P30561); test: Transactivation assay in mouse cell line (in vitro assay 2: antagonism); format: cell-based; settings: Hepa 1c1c7 cells, AHR inducible (DRE) firefly luciferase reporter, 200 μM kynurenic acid, 20 hours
T2 sequence (P30561 1-848): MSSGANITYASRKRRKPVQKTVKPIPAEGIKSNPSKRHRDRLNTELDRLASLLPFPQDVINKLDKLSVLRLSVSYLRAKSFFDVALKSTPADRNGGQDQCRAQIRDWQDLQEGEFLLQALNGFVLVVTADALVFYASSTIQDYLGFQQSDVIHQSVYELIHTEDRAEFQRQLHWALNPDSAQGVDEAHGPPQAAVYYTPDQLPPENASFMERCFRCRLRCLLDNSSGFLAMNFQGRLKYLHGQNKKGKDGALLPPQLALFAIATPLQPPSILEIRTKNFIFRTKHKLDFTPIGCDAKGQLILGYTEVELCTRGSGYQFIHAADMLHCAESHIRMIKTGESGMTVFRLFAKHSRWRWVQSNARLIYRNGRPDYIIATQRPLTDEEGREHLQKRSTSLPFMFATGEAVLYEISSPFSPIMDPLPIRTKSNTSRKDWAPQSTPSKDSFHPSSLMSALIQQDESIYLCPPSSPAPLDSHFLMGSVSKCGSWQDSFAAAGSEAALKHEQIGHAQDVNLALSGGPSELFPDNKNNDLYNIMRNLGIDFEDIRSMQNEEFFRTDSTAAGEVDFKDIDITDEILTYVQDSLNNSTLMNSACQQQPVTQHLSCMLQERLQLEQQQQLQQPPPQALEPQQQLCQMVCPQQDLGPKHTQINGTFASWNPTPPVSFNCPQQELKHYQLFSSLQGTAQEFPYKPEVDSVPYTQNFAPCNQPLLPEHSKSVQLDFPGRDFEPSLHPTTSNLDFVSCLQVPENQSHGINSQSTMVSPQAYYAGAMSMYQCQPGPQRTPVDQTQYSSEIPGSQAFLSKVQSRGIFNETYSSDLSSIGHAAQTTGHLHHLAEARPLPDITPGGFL
Outline: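 Hepa 1c1c7 cells express AhR endogenously and stably carry a DRE-driven firefly luciferase reporter. They were prestimulated with the agonist kynurenic acid before compound testing for antagonism. Luciferase read by SteadyGlo luminescence.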

Row | Compound | IC50 [1] | IC50 [2]
1 | CC(C)(O)CNC(=O)c1cc(-c2ccc(OC(F)(F)F)cc2)nc(-c2cnoc2)n1 [Example 22, N-(2-hydroxy-2-methylpropyl)-2-(1,2-oxazol-4-yl)-6-[4-(trifluoromethoxy)phenyl]pyrimidine-4-carboxamide] | 1100 nM | 5530 nM
2 | C[C@@H](CO)NC(=O)c1cc(-c2ccc(OC(F)(F)F)cc2)nc(-c2cnn(C)c2)n1 [Example 5, N-[(2S)-1-hydroxypropan-2-yl]-2-(1-methyl-1H-pyrazol-4-yl)-6-[4-(trifluoromethoxy)phenyl]pyrimidine-4-carboxamide] | 3.68 nM | 2.92 nM
3 | Cn1nccc1-c1nc(C(=O)NCC(C)(C)O)cc(-c2ccc(Cl)cc2)n1 [Example 54, 6-(4-chlorophenyl)-N-(2-hydroxy-2-methylpropyl)-2-(1-methyl-1H-pyrazol-5-yl)pyrimidine-4-carboxamide] | 36.6 nM | 41.1 nM
4 | O=C(N[C@H]1COC[C@@H]1O)c1cc(-c2ccc(OC(F)(F)F)cc2)nc(-c2cccnc2)n1 [Example 118, N-[(3S,4R)-4-hydroxyoxolan-3-yl]-2-(pyridin-3-yl)-6-[4-(trifluoromethoxy)phenyl]pyrimidine-4-carboxamide] | 2.34 nM | 3.4 nM
5 | Cn1cc(-c2nc(C(=O)N[C@H](CO)C(C)(C)C)cc(-c3ccc(OC(F)(F)F)cc3)n2)cn1 [Example 88, N-[(2S)-1-hydroxy-3,3-dimethylbutan-2-yl]-2-(1-methyl-1H-pyrazol-4-yl)-6-[4-(trifluoromethoxy)phenyl]pyrimidine-4-carboxamide] | 20.4 nM | 8.19 nM
6 | C[C@@H](CO)NC(=O)c1cc(-c2ccc(Cl)cc2)nc(-c2ccc(C#N)s2)n1 [Example 70, 6-(4-chlorophenyl)-2-(5-cyanothiophen-2-yl)-N-[(2S)-1-hydroxypropan-2-yl]pyrimidine-4-carboxamide] | 94.2 nM | 295 nM

Other lines, results leading:

Row | IC50 [1] | IC50 [2] | Compound
7 | 7240 nM | 9830 nM | CC(C)(O)CNC(=O)c1cc(-c2ccc(Cl)cc2)nc(-c2cnn(C3CC3)c2)n1 [Example 68, 6-(4-chlorophenyl)-2-(1-cyclopropyl-1H-pyrazol-4-yl)-N-(2-hydroxy-2-methylpropyl)pyrimidine-4-carboxamide]
8 | 25.2 nM | 271 nM | Cc1nn(C)cc1-c1nc(C(=O)N[C@@H](C)CO)cc(-c2ccc(OC(F)(F)F)cc2)n1 [Example 43, 2-(1,3-dimethyl-1H-pyrazol-4-yl)-N-[(2S)-1-hydroxypropan-2-yl]-6-[4-(trifluoromethoxy)phenyl]pyrimidine-4-carboxamide]
9 | 68.4 nM | 431 nM | Cc1ccc(-c2nc(C(=O)N[C@@H](C)CO)cc(-c3ccc(OC(F)(F)F)cc3)n2)cn1 [Example 39, N-[(2S)-1-hydroxypropan-2-yl]-2-(6-methylpyridin-3-yl)-6-[4-(trifluoromethoxy)phenyl]pyrimidine-4-carboxamide]
10 | 3.93 nM | 7.94 nM | C[C@@H](CO)NC(=O)c1cc(-c2ccc(Cl)cc2)nc(-c2cnn(C)c2)n1 [Example 11, 6-(4-chlorophenyl)-N-[(2S)-1-hydroxypropan-2-yl]-2-(1-methyl-1H-pyrazol-4-yl)pyrimidine-4-carboxamide]
11 | 108 nM | 671 nM | Cc1ccc(-c2nc(C(=O)N[C@@H](C)CO)cc(-c3ccc(Cl)cc3)n2)cn1 [Example 79, 6-(4-chlorophenyl)-N-[(2S)-1-hydroxypropan-2-yl]-2-(6-methylpyridin-3-yl)pyrimidine-4-carboxamide]
12 | 22.3 nM | 18.9 nM | Cn1cc(-c2nc(C(=O)N[C@@H](C#N)CO)cc(-c3ccc(OC(F)(F)F)cc3)n2)cn1 [Example 101, N-[(1S)-1-cyano-2-hydroxyethyl]-2-(1-methyl-1H-pyrazol-4-yl)-6-[4-(trifluoromethoxy)phenyl]pyrimidine-4-carboxamide]
13 | 717 nM | 354 nM | CC(C)(O)CNC(=O)c1cc(-c2ccc(OC(F)(F)F)cc2)nc(-c2cn[nH]c2)n1 [Example 20, N-(2-hydroxy-2-methylpropyl)-2-(1H-pyrazol-4-yl)-6-[4-(trifluoromethoxy)phenyl]pyrimidine-4-carboxamide]
14 | 73.4 nM | 206 nM | C[C@H](CO)NC(=O)c1cc(-c2ccc(Cl)cc2)nc(-c2cnn(C)c2)n1 [Example 12, 6-(4-chlorophenyl)-N-[(2R)-1-hydroxypropan-2-yl]-2-(1-methyl-1H-pyrazol-4-yl)pyrimidine-4-carboxamide]
